Results: patent US20040110253A1, “Method for identifying MHC-presented peptide epitopes for T cells” (priority 2002, published 2004)
Ends that are not written are not given here.

Experiments:
[1] = tested on: YAe-62 TCR; test: Binding of fluorescent soluble YAe-62 αβTCR to SF9 cells displaying IA^b-peptide (flow cytometry); set-up: species or system mouse; conditions: for YAe-62 TCR Binding (% of p3K): IA^b-peptide displayed on baculovirus-infected SF9 cells, fluorescent soluble αβTCR; for binding of YAe-62 αβTCR to IA^b-peptide complex (in words): insect cells displaying IA^b-peptide
Description: (§1) Next fluorescent, soluble αβTCR reagents were prepared for use in flow cytometry to detect insect cells displaying the appropriate MHCII/peptide combination. Fluorescent multivalent versions of the soluble αβTCR's of B3K-06 and YAe-62 bound to insect cells displaying the IA^b-p3K, but not a control MHCII-peptide combination (data not shown).
(§2) Insect cells displaying IA^b-p3K bound the αβTCR reagents very heterogeneously, probably due to heterogeneous expression of IA^b-p3K due to variations in the multiplicity of infection and the lack of synchrony in viral infection and expression. […] In this case, there was a direct correlation between the amount of surface IA^b-p3K expressed by an individual insect cell and the amount of αβTCR bound with cells bearing a particular level of IA^b-p3K binding the αβTCRs uniformly (data not shown). Therefore, comparing the two types of staining gave a useful tool to evaluate the relation between peptide sequence and the strength of αβTCR binding (see below).
(§3) A large number of SF9 insect cells were infected at an MOI of about one with baculovirus carrying the IA^b peptide library. After 3-4 days the cells were analyzed with fluorescent B3K-06 or YAe-62 soluble αβTCR, as described above. Fluorescent cells were sorted and cultured with fresh uninfected SF9 cells to create new infected cells for analysis and an enriched viral stock. This process was repeated 3 to 4 times. In each case, when no clear fluorescent population was apparent, the brightest 1% of the infected cells was sorted. In later rounds, the majority of the cells in a clearly distinguishable fluorescent population were sorted. Infected cells binding the B3K-06 αβTCR were apparent only after two rounds of enrichment but eventually yielded a population with uniform binding (data not shown). Infected cells that bound the YAe-62 αβTCR were detectable even with the initial library of viruses and enriched rapidly to yield a population with more heterogeneous levels of binding to the receptor (data not shown).
(§4) At the time of the final enrichment, single infected cells binding each of αβTCRs were sorted into individual wells of 96 well culture plates containing fresh SF9 cells in order to prepare clonal viral stocks. These stocks were used to infect fresh SF9 cells which were reanalyzed for binding to the appropriate αβTCR as described above. […] The majority of PCR fragments yielded a single unambiguous peptide sequence. These viruses were used to infect SF9 cells that expressed mouse ICAM and B7.1. The infected cells were used as APCs for either the B3K-06 or YAe-62 hybridoma with IL-2 production being a measure of IA^b-peptide recognition. Viruses expressing IA^b-peptide combinations that neither bound to the αβTCR nor stimulated the T cell hybridomas were used as negative controls and virus producing IA^b-p3K was used as the positive control. Results with a few representative virus clones are shown in FIG. 10A and 10B, and a summary of all of the results are shown in Table 1.

[2] = tested on: YAe-62 hybridoma; test: IL-2 production by YAe-62 T cell hybridoma in response to IA^b-peptide presenting APCs; format: cell-based, mouse; conditions: for IL-2 Production (units/ml): YAe-62 hybridoma, infected SF9 cells expressing mouse ICAM and B7.1 as APCs; for difference in the amount of IL-2 production stimulated by the two peptides: SEQ ID NO:39 versus SEQ ID NO:40
Text: The mouse T cell hybridoma, referred to as YAe-62, was chosen as a representative of broadly reactive T cells present in mice carrying transgenes and gene knockouts that lead to expression of MHC Class II that are almost completely occupied by a single peptide (Ignatowicz et al., 1996, Cell 84:521-529). The T cell was produced by immunization with p3K bound to IA^b in mice that express IA^b covalently linked to Eα, a dominant IA^b binding peptide derived from the MHC Class II IEα chain. YAe-62 responds to IA^b-p3K, but not to APCs lacking MHC Class II or to the IA^b-pEα APCs from the mouse from which it was derived. YAe-62 is also reactive against many cell types bearing IA^b in the absence of p3K. It also responds to APCs from a variety of mice carrying other alleles of IA. The inventors have postulated that this T cell responds mainly to the evolutionarily conserved regions of the IA molecule with less dependence on the peptide than seen with conventional T cells (Marrack et al., 2001, J. Immunol. 167:617-621). […] From the X-ray crystal structure of IA^b (Liu et al., 2002, supra) enough was known about how peptides bind to this MHC molecule to design a strategy in which the major MHC anchor amino acids of the peptide could be held constant and only five surface exposed amino acids need be varied in the library (FIG. 8).
as §4

[3] = tested on: B3K-06 TCR; test: Binding of fluorescent soluble B3K-06 αβTCR to SF9 cells displaying IA^b-peptide (flow cytometry); set-up: species or system mouse; conditions: for B3K-06 TCR Binding (% of p3K): IA^b-peptide displayed on baculovirus-infected SF9 cells, fluorescent soluble αβTCR
Description: as §1, §2, §3, §4

[4] = tested on: B3K-06 hybridoma; test: IL-2 production by B3K-06 T cell hybridoma in response to IA^b-peptide presenting APCs; format: cell-based, mouse; conditions: for IL-2 Production (units/ml): B3K-06 hybridoma, infected SF9 cells expressing mouse ICAM and B7.1 as APCs
Text: The hybridoma, B3K-06 was produced from wild-type C57BL/6 mice immunized conventionally with the peptide (Rees et al., 1999, supra). […] Also, as is commonly seen with conventional T cells, the interaction of the αβ TcR of B3K-06 with IA^b-p3K is very sensitive to changes in any of the peptide amino acids exposed on the surface of the IA^b-p3K complex. Mutation of positions Q2, K3, K5, N7 or K8 to alanine virtually eliminates recognition of p3K by B3K-06 (Liu et al., 2002, supra and additional data not shown).
as §4

| Substance | YAe-62 TCR Binding (% of p3K) [1] | IL-2 Production (units/ml) [2] [units/ml] | further results |
| --- | --- | --- | --- |
| F E A A L A R A V P A V (FEAALARAVPAV; synthetic peptide motif) [SEQ ID NO:33] | 23.4 % of p3K | <3 |  |
| F E A E K A K A L T A V (FEAEKAKALTAV; synthetic peptide motif) [SEQ ID NO:28] | 49.6 % of p3K | 9 |  |
| F E A E R A R A A S A V (FEAERARAASAV; synthetic peptide motif) [SEQ ID NO:36] | 2.3 % of p3K | <3 |  |
| F E A F M A R A K A A V (FEAFMARAKAAV; synthetic peptide motif) [SEQ ID NO:21] | 107.5 % of p3K | 1256 |  |
| F E A F P A K A L R A V (FEAFPAKALRAV; synthetic peptide motif) [SEQ ID NO:30] | 38.5 % of p3K | 47 |  |
| F E A H T A L A P R A V (FEAHTALAPRAV) [SEQ ID NO:23] | 80.4 % of p3K | 6 |  |
| F E A L P A R A A A A V (FEALPARAAAAV) [SEQ ID NO:22] | 70.4 % of p3K | 681 | binding of YAe-62 αβTCR to IA^b-peptide complex (in words) [1]: nearly equally well; difference in the amount of IL-2 production stimulated by the two peptides [2]: 100 fold |
| F E A L S A K A N T A V (FEALSAKANTAV; synthetic peptide motif) [SEQ ID NO:31] | 33.3 % of p3K | <3 |  |
| F E A L Y A K A L T A V (FEALYAKALTAV; synthetic peptide motif) [SEQ ID NO:19] | 98.7 % of p3K | 1717 |  |
| F E A P Y A Q A P H A V (FEAPYAQAPHAV; synthetic peptide motif) [SEQ ID NO:38] | 1.3 % of p3K | <3 |  |
| F E A Q G A L A N I A V (FEAQGALANIAV; synthetic peptide motif) [pEα, negative control, reference compound] | 0.3 % of p3K | <3 | B3K-06 TCR Binding (% of p3K) [3]: 0.4 % of p3K; IL-2 Production (units/ml) [4]: <3 units/ml; response of YAe-62 to IA^b-peptide APCs ([2]; APCs bearing IA^b-peptide): not |
| F E A Q R A R A A R A V (FEAQRARAARAV; also: tethered to IA^b) [SEQ ID NO:16] |  |  | B3K-06 TCR Binding (% of p3K) [3]: 66.8 % of p3K; binding of B3K-06 αβTCR to IA^b-peptide complex (in words) ([3]; insect cells displaying IA^b-peptide): only slightly less well than did the IA^b-p3K complex; IL-2 Production (units/ml) [4]: 25 units/ml; stimulation of B3K-06 to produce IL-2 (in words) ([4]; bound to IA^b on B7/ICAM expressing SF9 APCs): able to stimulate B3K-06 to produce IL-2, but not nearly as well as did p3K |
| F E A Q V A H A L P A V (FEAQVAHALPAV; synthetic peptide motif) [SEQ ID NO:29] | 48.6 % of p3K | 32 |  |
| F E A R C A K A S T A V (FEARCAKASTAV; synthetic peptide motif) [SEQ ID NO:20] | 102.5 % of p3K | 467 |  |
| F E A R E A K A L A A V (FEAREAKALAAV; synthetic peptide motif) [SEQ ID NO:32] | 27.0 % of p3K | <3 |  |
| F E A R L A S A G K A V (FEARLASAGKAV; synthetic peptide motif) [SEQ ID NO:35] | 2.6 % of p3K | <3 |  |
| F E A R T A H A R N A V (FEARTAHARNAV; synthetic peptide motif) [SEQ ID NO:37] | 1.4 % of p3K | <3 |  |
| F E A S K A S A A V A V (FEASKASAAVAV; synthetic peptide motif) [SEQ ID NO:34] | 13.0 % of p3K | <3 |  |
| F E A S L A R A R S A V (FEASLARARSAV) [SEQ ID NO:24] | 76.2 % of p3K | 5 |  |
| F E A T T A R A L T A V (FEATTARALTAV; synthetic peptide motif) [SEQ ID NO:27] | 52.0 % of p3K | 6 |  |
| F E A Y T A R A R T A V [SEQ ID NO:25] (FEAYTARARTAV) | 58.3 % of p3K | 5 |  |
| F E A Y T A R A R T A V [SEQ ID NO:26] (FEAYTARARTAV; synthetic peptide motif) | 54.9 % of p3K | 7 |  |
| FEAQTAKARGAVD (synthetic peptide motif) |  |  | binding of YAe-62 αβTCR to IA^b-peptide complex (in words) [1]: nearly equally well; difference in the amount of IL-2 production stimulated by the two peptides [2]: 100 fold |
